# Assay results published in patent publication US20080051418A1, “Arylalkanoic Acid Derivative” (priority 2004, published 2008).
row,melting point [°C],Compound
1,128 to 130,"CC(C)Oc1cc(Oc2ccc(C(F)(F)F)cn2)ccc1CCCOc1cc(CCC(=O)O)n(C)n1 [Example 152, 3-{3-[3-(2-isopropoxy-4-{[5-(trifluoromethyl)pyridin-2-yl]oxy}phenyl)propoxy]-1-methyl-1H-pyrazol-5-yl}propanoic acid]"
2,125 to 127,"CC(C)Oc1ccc(CCCOc2cc(CCC(=O)O)n(C)n2)c(OCc2ccc(Cl)cc2Cl)c1 [Example 161, 3-[3-(3-{2-[(2,4-dichlorobenzyl)oxy]-4-isopropoxyphenyl}propoxy) 1-methyl-1H-pyrazol-5-yl]propanoic acid]"
3,133 to 134,"CC(C)Cn1nc(OCCCc2ccc(OC(C)C)cc2OCc2ccc(Cl)cc2Cl)cc1CCC(=O)O [Example 162, 3-[3-(3-{2-[(2,4-dichlorobenzyl)oxy]-4-isopropoxyphenyl}propoxy) -1-isobutyl-1H-pyrazol-5-yl]propanoic acid]"
4,110 to 111,"CCn1nc(OCCCc2ccc(OC(C)C)cc2OCc2ccc(Cl)cc2Cl)cc1CCC(=O)O [Example 163, 3-[3-(3-{2-[(2,4-dichlorobenzyl)oxy]-4-isopropoxyphenyl}propoxy)-1-ethyl-1H-pyrazol-5-yl]propanoic acid]"
5,128.5 to 129.5,"COCCOc1ccc(CCCOc2cc(CCC(=O)O)n(C)n2)c(OCc2ccc(Cl)cc2Cl)c1 [Example 164, 3-(3-{3-[2-[(2,4-dichlorobenzyl)oxy]-4-(2-methoxyethoxy)phenyl]propoxy}-1-methyl-1H-pyrazol-5-yl)propanoic acid]"
6,114 to 116,"CCn1nc(OCCCc2ccc(OCCOC)cc2OCc2ccc(Cl)cc2Cl)cc1CCC(=O)O [Example 165, 3-(3-{3-{2-[(2,4-dichlorobenzyl)oxy]-4-(2-methoxyethoxy)phenyl}propoxy}-1-ethyl-1H-pyrazol-5-yl)propanoic acid]"
7,88 to 89,"CC(C)Oc1ccc(CCCOc2cc(CCC(=O)O)n(C)n2)c(OCc2ccc(C(F)(F)F)cc2)c1 [Example 167, 3-{3-[3-(4-isopropoxy-2-{[4-(trifluoromethyl)benzyl]oxy}phenyl)propoxy]-1-methyl-1H-pyrazol-5-yl}propanoic acid]"
8,75 to 76,"CCn1nc(OCCCc2ccc(OC(C)C)cc2OCc2ccc(C(F)(F)F)cc2)cc1CCC(=O)O [Example 168, 3-{1-ethyl-3-[3-(4-isopropoxy-2-{[4-(trifluoromethyl)benzyl]oxy}phenyl)propoxy]-1H-pyrazol-5-yl}propanoic acid]"
9,60 to 62,"CC(C)Oc1ccc(CCCOc2cc(CCC(=O)O)n(-c3ccccc3)n2)c(Oc2ccc(Cl)cc2Cl)n1 [Example 171, 3-(3-{3-[2-(2,4-dichlorophenoxy)-6-isopropoxypyridin-3-yl]propoxy}-1-phenyl-1H-pyrazol-5-yl)propanoic acid]"
10,102 to 103,"CC(C)Oc1ccc(CCCOc2nn(C)cc2CC(=O)O)c(OCc2ccc(Cl)cc2Cl)c1 [Example 174, [3-(3-{2-[(2,4-dichlorobenzyl)oxy]-4-isopropoxyphenyl}propoxy)-1-methyl-1H-pyrazol-4-yl]acetic acid]"
11,103 to 104,"CC(C)Oc1ccc(CCCOc2nn(Cc3ccccc3)cc2CC(=O)O)c(OCc2ccc(Cl)cc2Cl)c1 [Example 175, [1-benzyl-3-(3-{2-[(2,4-dichlorobenzyl)oxy]-4-isopropoxyphenyl}propoxy)-1H-pyrazol-4-yl]acetic acid]"
12,132 to 133,"CCOc1nn(Cc2ccc(Cl)cc2Cl)cc1CCCOc1cc(CCC(=O)O)n(-c2ccccc2)n1 [Example 183, 3-(3-{3-[1-(2,4-dichlorobenzyl)-3-ethoxy-1H-pyrazol-4-yl]propoxy}-1-phenyl-1H-pyrazol-5-yl)propanoic acid]"
13,105 to 107,"CC(C)c1nn(Cc2ccc(Cl)cc2Cl)cc1CCCOc1cc(CCC(=O)O)n(-c2ccccc2)n1 [Example 190, 3-(3-{3-[1-(2,4-dichlorobenzyl)-3-isopropyl-1H-pyrazol-4-yl]propoxy}-1-phenyl-1H-pyrazol-5-yl)propanoic acid]"
14,145.5 to 147.5,"CC(C)Oc1cc(CCCOc2cc(CCC(=O)O)n(-c3ccccc3)n2)n(Cc2ccc(Cl)cc2Cl)n1 [Example 192, 3-(3-{3-[1-(2,4-dichlorobenzyl)-3-isopropoxy-1H-pyrazol-5-yl]propoxy}-1-phenyl-1H-pyrazol-5-yl)propanoic acid]"
15,114 to 118,"CCOc1nn(Cc2ccc(Cl)cc2Cl)cc1CCCOc1nn(-c2ccccc2)cc1CCC(=O)O [Example 193, 3-(3-{3-[1-(2,4-dichlorobenzyl)-3-ethoxy-1H-pyrazol-4-yl]propoxy}-1-phenyl-1H-pyrazol-4-yl)propanoic acid]"
16,105 to 106,"CC(C)Oc1cc(COc2cc(CCC(=O)O)n(C)n2)cc(COc2ccc(Cl)cc2Cl)c1 [Example 194, 3-[3-({3-[(2,4-dichlorophenoxy)methyl]-5-isopropoxybenzyl}oxy)-1-methyl-1H-pyrazol-5-yl]propanoic acid]"

# The remaining lines, values behind:
row,Compound,melting point [°C]
1,"CC(C)Oc1cc(Oc2ccc(C(F)(F)F)cn2)ccc1CCCOc1cc(CCC(=O)O)n(-c2ccccc2)n1 [Example 151, 3-{3-[3-(2-isopropoxy-4-{[5-(trifluoromethyl)pyridin-2-yl]oxy}phenyl)propoxy]-1-phenyl-1H-pyrazol-5-yl}propanoic acid]",129.5 to 130.5
2,"COCCOc1cc(Oc2ccc(C(F)(F)F)cn2)ccc1CCCOc1cc(CCC(=O)O)n(-c2ccccc2)n1 [Example 153, 3-{3-[3-(2-(2-methoxyethoxy)-4-{[5-(trifluoromethyl)pyridin-2-yl]oxy}phenyl)propoxy]-1-phenyl-1H-pyrazol-5-yl}propanoic acid]",83 to 85
3,"COCCOc1cc(Oc2ccc(C(F)(F)F)cn2)ccc1CCCOc1cc(CCC(=O)O)n(C)n1 [Example 154, 3-{3-[3-(2-(2-methoxyethoxy)-4-{[5-(trifluoromethyl)pyridin-2-yl]oxy}phenyl)propoxy]-1-methyl-1H-pyrazol-5-yl}propanoic acid]",109.5 to 110.5
4,"CC(C)Oc1ccc(CCCCOc2cc(CCC(=O)O)n(C)n2)c(Oc2ncc(C(F)(F)F)cc2Cl)c1 [Example 155, 3-{3-[4-(2-{[3-chloro-5-(trifluoromethyl)pyridin-2-yl]oxy}-4-isopropoxyphenyl)butoxy]-1-methyl-1H-pyrazol-5-yl}propanoic acid]",156 to 157
5,"CC(C)Cn1nc(OCCCCc2ccc(OC(C)C)cc2Oc2ncc(C(F)(F)F)cc2Cl)cc1CCC(=O)O [Example 157, 3-{3-[4-(2-{[3-chloro-5-(trifluoromethyl)pyridin-2-yl]oxy}-4-isopropoxyphenyl)butoxy]-1-isobutyl-1H-pyrazol-5-yl}propanoic acid]",122 to 123
6,"CC(C)Oc1ccc(CCCCOc2cc(CCC(=O)O)n(C(C)C)n2)c(Oc2ncc(C(F)(F)F)cc2Cl)c1 [Example 159, 3-{3-[4-(2-{[3-chloro-5-(trifluoromethyl)pyridin-2-yl]oxy}-4-isopropoxyphenyl)butoxy]-1-isopropyl-1H-pyrazol-5-yl}propanoic acid]",99.5 to 100.5
7,"COCCOc1ccc(CCCOc2cc(CCC(=O)O)n(C)n2)c(OCc2ccc(C(F)(F)F)cc2)c1 [Example 169, 3-{3-[3-(4-(2-methoxyethoxy)-2-{[4-(trifluoromethyl)benzyl]oxy}phenyl)propoxy]-1-methyl-1H-pyrazol-5-yl}propanoic acid]",110 to 111
8,"CCn1nc(OCCCc2ccc(OCCOC)cc2OCc2ccc(C(F)(F)F)cc2)cc1CCC(=O)O [Example 170, 3-{1-ethyl-3-[3-(4-(2-methoxyethoxy)-2-{[4-(trifluoromethyl)benzyl]oxy}phenyl)propoxy]-1H-pyrazol-5-yl}propanoic acid]",112 to 113
9,"CC(C)Oc1ccc(CCCOc2cc(CCC(=O)O)n(-c3ccccc3)n2)c(Oc2ccc(C(F)(F)F)cn2)c1 [Example 172, 3-{3-[3-(4-isopropoxy-2-{[5-(trifluoromethyl)pyridin-2-yl]oxy}phenyl)propoxy]-1-phenyl-1H-pyrazol-5-yl}propanoic acid]",80 to 82
10,"CCOc1nn(Cc2ccc(Cl)cc2Cl)cc1CCCOc1cc(CCC(=O)O)n(Cc2ccccc2)n1 [Example 182, 3-(1-benzyl-3-{3-[1-(2,4-dichlorobenzyl)-3-ethoxy-1H-pyrazol-4-yl]propoxy}-1H-pyrazol-5-yl)propanoic acid]",84 to 85
11,"CCc1cccc(CC(=O)O)c1OCCn1cc(C(=O)NCc2ccc(C(F)(F)F)cc2)c(OC(C)C)n1 [Example 184, (3-ethyl-2-{2-[3-isopropoxy-4-({[4-(trifluoromethyl)benzyl]amino}carbonyl)-1H-pyrazol-1-yl]ethoxy}phenyl)acetic acid]",110 to 111
12,"CCc1cnn(CC(=O)O)c1OCCn1cc(C(=O)NCc2ccc(C(F)(F)F)cc2)c(OC(C)C)n1 [Example 185, (4-ethyl-5-{2-[3-isopropoxy-4-({[4-(trifluoromethyl)benzyl]amino}carbonyl)-1H-pyrazol-1-yl]ethoxy}-1H-pyrazol-1-yl)acetic acid]",183 to 184
13,"CCc1cccc(CC(=O)O)c1OCCCn1cc(C(=O)NCc2ccc(C(F)(F)F)cc2)c(OC(C)C)n1 [Example 186, (3-ethyl-2-{3-[3-isopropoxy-4-({[4-(trifluoromethyl)benzyl]amino}carbonyl)-1H-pyrazol-1-yl]propoxy}phenyl)acetic acid]",107.5 to 108.5
14,"CCc1cccc(CC(=O)O)c1OCCn1cc(CCOc2ncc(C(F)(F)F)cc2Cl)c(OC(C)C)n1 [Example 188, (2-{2-[4-(2-{[3-chloro-5-(trifluoromethyl)pyridin-2-yl]oxy}ethyl)-3-isopropoxy-1H-pyrazol-1-yl]ethoxy}-3-ethylphenyl)acetic acid]",76.5 to 77.5
15,"CC(C)Oc1cc(CCCOc2cc(CCC(=O)O)n(Cc3ccccc3)n2)n(Cc2ccc(Cl)cc2Cl)n1 [Example 191, 3-(1-benzyl-3-{3-[1-(2,4-dichlorobenzyl) -3-isopropoxy-1H-pyrazol-5-yl]propoxy}-1H-pyrazol-5-yl)propanoic acid]",123 to 126
